Data taken from ChEMBL document CHEMBL5532754, “Discovery of aurones bearing two amine functionalities as SHIP2 inhibitors with insulin-sensitizing effect in rat myotubes” (RSC Med Chem, 2024).
Where a name gives a salt, the structure may show the parent alone. Active and inactive are the calls of the source. No cut-off for these calls is given here.

Tests used:
[1] = Thiol (sulfhydryl) reactivity of compound assessed as change in absorbance at 200 uM at pH 7.4 aqueous buffer measured at 1 to 24 hrs in presence of DTT; format: ADME; settings: pH 7.4, 200 µM, time 1-24 hrs
L6 [2] = test: Insulin sensitizing activity in rat L6 myotubes assessed as increase in glucose uptake by measuring fold change at 2 mM preincubated with compound for 18 hrs followed by insulin addition and measured after 15 mins by luminescence based microplate reader analysis; format: functional; settings: time 18.25 hrs
L6 [3] = test: Induction of glucose uptake in serum-starved rat L6 myotubes at 2 mM by luminescence based microplate reader analysis; format: functional, cell-based
[4] = Thiol (sulfhydryl) reactivity of compound assessed as change in absorbance at 200 uM at pH 7.4 aqueous buffer measured upto 24 hrs in presence of DTT; format: ADME; settings: pH 7.4, 24 h
[5] = target: T1, Phosphatidylinositol 3,4,5-trisphosphate 5-phosphatase 2 (Rattus norvegicus) (UniProt Q9WVR3); test: Inhibition of SHIP2 in serum-starved rat L6 myotubes assessed as increase in phosphorylated Akt to total Akt level at 20 to 40 uM incubated for 24 hrs by ELISA; format: cell-based; settings: dose 20-40 µM
T1 sequence (whole entry): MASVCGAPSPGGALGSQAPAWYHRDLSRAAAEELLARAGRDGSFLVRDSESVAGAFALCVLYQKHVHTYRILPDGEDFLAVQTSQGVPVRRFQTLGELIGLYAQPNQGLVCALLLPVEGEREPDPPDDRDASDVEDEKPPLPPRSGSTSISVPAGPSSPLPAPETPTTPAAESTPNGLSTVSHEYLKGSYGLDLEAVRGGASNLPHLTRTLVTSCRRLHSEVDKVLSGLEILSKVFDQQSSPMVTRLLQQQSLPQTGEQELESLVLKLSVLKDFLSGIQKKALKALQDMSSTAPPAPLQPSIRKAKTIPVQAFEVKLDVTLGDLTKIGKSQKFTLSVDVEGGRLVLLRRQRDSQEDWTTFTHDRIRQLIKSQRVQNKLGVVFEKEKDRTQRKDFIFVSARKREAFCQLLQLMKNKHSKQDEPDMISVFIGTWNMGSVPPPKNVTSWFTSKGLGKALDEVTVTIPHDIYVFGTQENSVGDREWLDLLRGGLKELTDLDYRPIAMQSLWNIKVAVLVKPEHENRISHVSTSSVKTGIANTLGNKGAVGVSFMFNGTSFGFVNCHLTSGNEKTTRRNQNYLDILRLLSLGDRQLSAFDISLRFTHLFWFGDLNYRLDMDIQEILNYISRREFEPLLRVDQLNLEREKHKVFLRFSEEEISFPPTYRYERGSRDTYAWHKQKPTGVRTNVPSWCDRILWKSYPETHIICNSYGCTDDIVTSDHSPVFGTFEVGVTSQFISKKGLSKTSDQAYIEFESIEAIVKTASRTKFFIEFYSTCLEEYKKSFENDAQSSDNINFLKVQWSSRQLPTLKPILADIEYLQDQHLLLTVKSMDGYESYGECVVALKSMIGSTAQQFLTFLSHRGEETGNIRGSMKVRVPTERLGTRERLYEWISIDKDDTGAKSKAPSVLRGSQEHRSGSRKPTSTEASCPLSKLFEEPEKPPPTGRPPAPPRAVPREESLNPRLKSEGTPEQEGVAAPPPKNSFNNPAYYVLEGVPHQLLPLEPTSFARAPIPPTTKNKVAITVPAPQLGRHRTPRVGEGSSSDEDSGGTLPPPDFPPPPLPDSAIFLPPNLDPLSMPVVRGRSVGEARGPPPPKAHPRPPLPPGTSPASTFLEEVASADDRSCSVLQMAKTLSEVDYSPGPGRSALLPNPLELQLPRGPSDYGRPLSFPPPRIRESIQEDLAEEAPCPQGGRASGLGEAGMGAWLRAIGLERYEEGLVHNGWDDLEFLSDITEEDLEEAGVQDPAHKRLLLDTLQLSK

L6 [6] = test: Induction of glucose uptake in serum-starved rat L6 myotubes at 20 uM by luminescence based microplate reader analysis; format: functional, cell-based
[7] = Apparent permeability of the compound across apical to basolateral side in human Caco-2 cells at 30 uM incubated for 60 mins by LC analysis; format: ADME, cell-based

Activity [1]	Activity [4]	inhibition [5]	Papp A→B at 1 h, 30 µM [7] [×10⁻⁶ cm/s]	Compound	fold change (FC) (L6 [2])	Activity (L6 [3])	Activity (L6 [6])
Active	–	–	–	COC(=O)/C=C/C(=O)OC [DIMETHYL FUMARATE]	–	–	–
–	–	–	–	CN(C)C(=N)NC(=N)N [METFORMIN]	1.6	inactive	–
–	Not Active	Active	–	O=C1/C(=C/c2cn(CCN3CCOCC3)c3ccccc23)Oc2cc(OCCN3CCCCC3)ccc21	–	–	inactive
–	Not Active	Active	25.3	O=C1/C(=C/c2cn(CCN3CCCCC3)c3ccccc23)Oc2cc(OCCN3CCCCC3)ccc21	–	–	inactive
–	Not Active	Active	–	CN(C)CCCn1cc(/C=C2\Oc3cc(OCCN4CCCCC4)ccc3C2=O)c2ccccc21	–	–	inactive
